{"source": "patent US20200283498A1", "about": "“T CELL RECEPTOR FUSIONS AND CONJUGATES AND METHODS OF USE THEREOF” (Altor Bioscience LLC, priority 2008, published 2020)", "key": {"[1]": {"tested_on": "human NSCLC A549-A2 tumor cells", "experiment": "Adoptive transfer of preincubated NK cells in A549-A2 experimental metastasis model", "assay_type": "in vivo, athymic nude mice", "details": "CTX 200 mg/kg ip days 14, 21; NK cells preincubated with the protein iv days 16, 22 (CTX group: no NK cells)"}, "immune cells": {"tested_on": "immune cells", "assay_type": "in vivo, human", "protocol": "FIG. 33A is a line graph showing serum IFN-γ levels (determined by ELISA analysis) of subjects following treatment with 0.04 mg/kg ALT-801 (MTD level). FIG. 33B is a line graph showing IFN-γ ELISPOT analysis of PBMCs for subjects treated with 0.04 mg/kg ALT-801 (MTD level). Peripheral blood mononuclear cells (PBMCs) were prepared from samples collected pre-dosing (Cycles 1 & 2) and 2 hours after the drug infusion of dose 3 and 7. Following overnight incubation in medium alone or medium containing ALT-801, p53-positive A375 tumor cells or ALT-801+A375 tumor cells, activated immune effector cells were measured using ELISPOT for IFN-γ production\nBased on PK profile, the IL-2 receptors on the surface of immune cells (i.e. NK cells and T-cells) in the patient are anticipated to be fully occupied by the ALT-801 circulating in the patient's serum when a dose of 0.015 mg/kg or higher is administered. […] IFN-γ is produced by activated NK and T-cells and its induction by ALT-801 likely correlates with an increase in effector cell cytolytic activity that plays a role in the antitumor responses. […] Thus the lack of treatment-related TNF-α expression may contribute to the reduced toxicity observed with ALT-801 treatment compared with high-dose IL-2.\nThe effects of ALT-801 on cell-mediated immune responses were also examined in treated patients. Blood samples were collected from subjects at pre-dosing on the first study drug infusion day and 2 hours after the drug infusion on the third drug infusion day during the first and second treatment cycles. Peripheral blood mononuclear cells (PBMCs) were prepared and incubated overnight in medium alone or medium containing ALT-801, p53-positive A375 tumor cells or ALT-801+A375 tumor cells. Levels of activated immune effector cells were measured using ELISPOT for interferon-gamma (IFN-γ) production. […] These cells were not found in the blood during the treatment cycle (i.e. Dose 3 and Dose 7 samples), consistent with lymphocyte migration to the tumor site. […] Together, these findings indicate that ALT-801 treatment at the MTD level provided favorable pharmacokinetics and immunostimulatory activity necessary for antitumor responses."}, "[2]": {"tested_on": "metastatic malignancies that express HLA-A2/p53 peptide complexes", "experiment": "Phase I/IIa clinical study of ALT-801: tumor assessment (RECIST)", "assay_type": "in vivo, human", "protocol": "FIG. 35 sets forth Table 2 depicting preliminary tumor assessment for evaluable subjects treated with 0.015, 0.04 or 0.08 mg/kg ALT-801. […] For SD (highlighted), change in target lesions compared to baseline is indicated at week 7 or 11 after the first dose.\nALT-801 is currently being evaluated in a multi-course dose-escalation Phase I/IIa clinical study in patients with metastatic malignancies that express HLA-A2/p53 peptide complexes, the antigenic target of ALT-801. The primary endpoints in this dose-escalation study are to evaluate the safety, determine the maximum-tolerated dose (MTD), and characterize the pharmacokinetic profile of ALT-801 administered to patients with progressive metastatic malignancies. Secondary endpoints include evaluation of ALT-801 immunogenicity and assessment of the patient's immune response and anti-tumor response. Each subject enrolled receives up to a total of 8 doses of the study drug in the following schedule: once daily as an intravenous bolus for the first 4 days (cycle 1), followed by a 10-day rest period of no study drug treatment (rest period) and then once daily as an intravenous bolus for an additional 4 days (cycle 2). The trial design includes a dose escalation phase of 3-6 subjects/cohort with starting dose of 0.015 mg/kg (equivalent to approximately 50,000 IL-2 IU/kg) and an expansion phase with 10 additional patients treated at the MTD level. At least 23 patients have been treated with at least one dose of ALT-801 at the 0.015 mg/kg (4 patients), 0.04 mg/kg (13 patients) and 0.08 mg/kg (6 patients).\nThe effects of ALT-801 on tumors was assessed based on RECIST criteria by comparing baseline (pre-dose) CT scans with those taken in follow-up visits at week 7 and 11."}, "[3]": {"tested_on": "human PBMCs and purified NK cells", "experiment": "In vitro activation of human PBMCs and purified NK cells by ALT-801", "assay_type": "cell-based", "details": "concentrations observed in patients; overnight incubation"}}, "data": [{"substance": "ALT-801: recombinant humanized soluble single-chain TCR-cytokine fusion protein: human TCR β constant domain, murine TCR antigen-binding regions, human IL2; p53 (aa 264-272)/HLA-A2.1 specific", "values": [{"measurement": "Median survival", "setting": "[1]", "result": 85.5, "unit": "days"}, {"measurement": "serum IFN-γ induction by dose level", "setting": "immune cells; 0.04 mg/kg or 0.08 mg/kg", "result": "equivalent levels of serum IFN-γ induction that were higher than those observed at the 0.015 mg/kg dose level"}, {"measurement": "serum IFN-γ concentrations", "setting": "immune cells; 4-8 hours after dosing, particularly following the fourth dose", "result": "increase in serum IFN-γ concentrations"}, {"measurement": "immune cells responsive to ALT-801+A375 tumor cells (ELISPOT)", "setting": "immune cells; Pre-dose Cycle-2 sample", "result": "increase in immune cells responsive to ALT-801+A375 tumor cells"}, {"measurement": "IFN-γ-positive cells in blood (ELISPOT)", "setting": "immune cells; during the 2-cycle course of treatment", "result": "little or no increase in IFN-γ-positive cells"}, {"measurement": "patients with stable disease status", "setting": "[2]; 11 weeks after treatment", "result": "approximately 50%"}, {"measurement": "tumor shrinkage", "setting": "[2]; cohort 3 subjects with stable disease", "result": "up to 23%"}, {"measurement": "subjects with stable disease, cohort 3", "setting": "[2]; six evaluated subjects", "result": "four (three with melanoma and one with renal cell carcinoma) of six evaluated subjects of cohort 3 showed stable disease"}, {"measurement": "subjects with stable disease, cohort 2", "setting": "[2]; six subjects", "result": "three (prostate cancer, head and neck cancer and renal cell carcinoma) have achieved stable disease status"}, {"measurement": "change in target lesion LD compared to baseline", "setting": "[2]; subject 02004 Metastatic Head and Neck, second course 0.04 mg/kg, over 9 month", "result": "−3.3", "unit": "%"}, {"measurement": "activation of human PBMCs and purified NK cells", "setting": "[3]", "result": "able to fully activate human PBMCs and purified NK cells"}]}]}
